From patent US20240158446A1, “CYCLIC COMPOUND HAVING SELECTIVE INHIBITORY ACTION ON KRAS OVER HRAS AND NRAS” (CHUGAI SEIYAKU KABUSHIKI KAISHA, priority 2021, published 2024)

Legend:
[1] = target: GDP-bound HRAS wild-type protein (Homo sapiens, UniProt P01112); assay: Binding to HRAS by surface plasmon resonance (SPR), Single Cycle Kinetics; settings: SPR, GDP-bound HRAS wild-type protein vs GDP-bound KRAS wild-type protein
[2] = target: GDP-bound NRAS wild-type protein (Homo sapiens, UniProt P01111); assay: Binding to NRAS by surface plasmon resonance (SPR), Single Cycle Kinetics; settings: SPR, GDP-bound NRAS wild-type protein vs GDP-bound KRAS wild-type protein
[3] = target: GDP-bound KRAS wild-type protein (Homo sapiens, UniProt P01116); assay: Binding to KRAS by surface plasmon resonance (SPR), Single Cycle Kinetics; settings: SPR, Single Cycle Kinetics, GDP-bound KRAS wild-type protein; read-out: KRAS KD
[4] = system: human lung cancer strain NCI-H441;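 further: cell proliferation inhibition after four days measured by CellTiter-Glo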

Chain of GDP-bound NRAS wild-type protein (P01111 whole entry): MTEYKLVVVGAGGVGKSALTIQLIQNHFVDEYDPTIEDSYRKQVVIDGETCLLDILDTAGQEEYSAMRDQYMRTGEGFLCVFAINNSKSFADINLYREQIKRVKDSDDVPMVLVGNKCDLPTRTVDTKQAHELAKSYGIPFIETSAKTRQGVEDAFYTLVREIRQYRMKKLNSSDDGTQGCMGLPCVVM
Chain of GDP-bound KRAS wild-type protein (P01116 whole entry): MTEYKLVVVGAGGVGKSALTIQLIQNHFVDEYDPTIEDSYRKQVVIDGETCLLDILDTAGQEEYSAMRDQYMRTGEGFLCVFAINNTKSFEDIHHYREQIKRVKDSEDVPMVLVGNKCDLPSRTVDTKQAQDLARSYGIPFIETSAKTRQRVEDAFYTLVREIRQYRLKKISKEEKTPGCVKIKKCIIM
Chain of GDP-bound HRAS wild-type protein (P01112 whole entry): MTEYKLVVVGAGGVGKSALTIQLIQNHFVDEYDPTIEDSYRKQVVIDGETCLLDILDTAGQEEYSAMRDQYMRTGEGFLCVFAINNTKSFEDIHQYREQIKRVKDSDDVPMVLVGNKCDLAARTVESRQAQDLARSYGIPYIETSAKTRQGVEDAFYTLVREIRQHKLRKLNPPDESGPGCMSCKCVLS

SMILES | HRAS/KRAS (ratio of KD value for HRAS to KD value for KRAS) [1] | NRAS/KRAS (ratio of KD value for NRAS to KD value for KRAS) [2] | Kd [3] | IC50 [4]
CCC[C@H]1C(=O)N[C@@H]([C@@H](C)CC)C(=O)N(C)CC(=O)N(C)[C@H]2C/C=C\CCN(C2=O)[C@@H](CC2CCC(F)(F)CC2)C(=O)N(C)CC(=O)N[C@@H](CCc2ccc(C(F)(F)F)c(OC)c2)C(=O)N2C[C@H](OCC)C[C@H]2C(=O)NC2(CC(C)(C)C2)C(=O)N(C)[C@@H](C(CC)CC)C(=O)N(C)[C@H](C(=O)N(C)C)CC(=O)N1C [PP2482] | A (a compound having 10 or more and less than 20 is denoted as A) | A (a compound having 10 or more and less than 20 is denoted as A) | 0.93 nM | 23.8 nM
CCCOC[C@H]1C(=O)N[C@@H]([C@@H](C)CC)C(=O)N(C)CC(=O)N(C)[C@H]2C/C=C\CCN(C2=O)[C@@H](CC2CCC(F)(F)CC2)C(=O)N(C)CC(=O)N[C@@H](CCc2ccc(C(F)(F)F)c(OC)c2)C(=O)N2C[C@@H](C)C[C@H]2C(=O)NC2(CC(C)(C)C2)C(=O)N(C)[C@@H](C(CC)CC)C(=O)N(C)[C@H](C(=O)N(C)C)CC(=O)N1C [PP2483] | A (a compound having 10 or more and less than 20 is denoted as A) | A (a compound having 10 or more and less than 20 is denoted as A) | 1.6 nM | 195 nM
CCCOC[C@H]1C(=O)N[C@@H]([C@@H](C)CC)C(=O)N(C)CC(=O)N(C)[C@H]2C/C=C\CCN(C2=O)[C@@H](CC2CCC(F)(F)CC2)C(=O)N(C)CC(=O)N[C@@H](CCc2ccc(C(F)(F)F)c(Cl)c2)C(=O)N2C[C@H](OCC)C[C@H]2C(=O)NC2(CC(C)(C)C2)C(=O)N(C)[C@@H](C(CC)CC)C(=O)N(C)[C@H](C(=O)N(C)C)CC(=O)N1C [PP2484] | A (a compound having 10 or more and less than 20 is denoted as A) | A (a compound having 10 or more and less than 20 is denoted as A) | 1 nM | 74.3 nM
CCO[C@@H]1C[C@H]2C(=O)NC3(CC(C)(C)C3)C(=O)N(C)[C@@H](C(CC)CC)C(=O)N(C)[C@H](C(=O)N(C)C)CC(=O)N(C)[C@@H](CC3CC3)C(=O)N[C@@H]([C@@H](C)CC)C(=O)N(C)CC(=O)N(C)[C@H]3C/C=C\CCN(C3=O)[C@@H](CC3CCC(F)(F)CC3)C(=O)N(C)CC(=O)N[C@@H](CCc3cc(F)c(C(F)(F)F)c(F)c3)C(=O)N2C1 [PP2485] | A (a compound having 10 or more and less than 20 is denoted as A) | A (a compound having 10 or more and less than 20 is denoted as A) | 0.78 nM | 55.5 nM
CCOC[C@H]1C(=O)N[C@@H]([C@@H](C)CC)C(=O)N(C)CC(=O)N(C)[C@H]2C/C=C\CCN(C2=O)[C@@H](CC2CCCCC2)C(=O)N(C)CC(=O)N[C@@H](CCc2ccc(C(F)(F)F)c(Cl)c2)C(=O)N2C[C@H](OCC)C[C@H]2C(=O)NC2(CC(C)(C)C2)C(=O)N(C)[C@@H](C(CC)CC)C(=O)N(C)[C@H](C(=O)N(C)C)CC(=O)N1C [PP2488] | A (a compound having 10 or more and less than 20 is denoted as A) | A (a compound having 10 or more and less than 20 is denoted as A) | 1.6 nM | 171 nM
CCC[C@H]1C(=O)N[C@@H]([C@@H](C)CC)C(=O)N(C)CC(=O)N(C)[C@H]2C/C=C\CCN(C2=O)[C@@H](CC2CCC(F)(F)CC2)C(=O)N(C)CC(=O)N[C@@H](CCc2cc(F)c(C(F)(F)F)c(F)c2)C(=O)N2C[C@H](OCC)C[C@H]2C(=O)NC2(CC(C)(C)C2)C(=O)N(C)[C@@H](C(CC)CC)C(=O)N(C)[C@H](C(=O)N(C)C)CC(=O)N1C [PP2489] | A (a compound having 10 or more and less than 20 is denoted as A) | A (a compound having 10 or more and less than 20 is denoted as A) | 0.55 nM | 30.5 nM
